Results as given in PubChem BioAssay AID330 (DTP/NCI, 2004).
“And” between values parts separate entries of the source, which are not always exact repeats. Equal values may be shown once. Inconclusive results and toxic doses are left out. How the source made its calls: active means survival T/C of 150% or more; inactive means T/C below 125% in these data.

Tested on: P388 leukemia ip, CD2F1 mice, survival T/C
Assay: NCI In Vivo Anticancer Drug Screen. Data for tumor model P388 Leukemia (intraperitoneal) in CD2F1 (CDF1) mice
Conditions: endpoint: median survival time, higher = longer survival
Method in brief: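 Mice carrying the transplanted tumor received test compound or vehicle. Survival was recorded in each group, and the value is the treated-group measurement divided by that of the vehicle-treated control group.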

[1] = dose: 50.0 mg/kg/injection, schedule: Q01DX009 (ip), vehicle: Klucel (hydroxypropylcellulose) (HPC)
[2] = dose: 100.0 mg/kg/injection, schedule: Q01DX009 (ip), vehicle: Klucel (hydroxypropylcellulose) (HPC)
[3] = dose: 200.0 mg/kg/injection, schedule: Q01DX009 (ip), vehicle: Klucel (hydroxypropylcellulose) (HPC)
[4] = dose: 50.0 mg/kg/injection, schedule: Q01DX009 (ip), vehicle: saline
[5] = dose: 100.0 mg/kg/injection, schedule: Q01DX009 (ip), vehicle: saline
[6] = dose: 100.0 mg/kg/injection, schedule: Q01DX001 (ip), vehicle: saline with Tween-80
[7] = dose: 200.0 mg/kg/injection, schedule: Q01DX001 (ip), vehicle: saline with Tween-80
[8] = dose: 100.0 mg/kg/injection, schedule: Q04DX003 (ip), vehicle: saline
[9] = dose: 200.0 mg/kg/injection, schedule: Q04DX003 (ip), vehicle: saline
[10] = dose: 25.0 mg/kg/injection, schedule: Q01DX005 (ip), vehicle: saline with Tween-80

Measured: T/C

CC1(C)CNC(=S)N1C1CCCCC1
inactive: dose: 50.0 mg/kg/injection, schedule: Q01DX009 (ip), vehicle: suspension in saline 97 % of control | dose: 100.0 mg/kg/injection, schedule: Q01DX009 (ip), vehicle: suspension in saline 104 % of control | dose: 200.0 mg/kg/injection, schedule: Q01DX009 (ip), vehicle: suspension in saline 93 % of control

CCCCCCCSc1nc2ccc(N=Cc3ccccc3O)cc2s1
inactive: [1] 93 % of control | [2] 103 % of control | [3] 103 % of control

O=C1NC(=O)N(c2cccc(Cl)c2)C1=O
inactive: [1] 106 % of control | [2] 109 % of control | [3] 102 % of control

N#Cc1c(NC(=O)CCC(=O)O)ccc2ccccc12
inactive: [4] 99 % of control | [5] 114 % of control | dose: 200.0 mg/kg/injection, schedule: Q01DX009 (ip), vehicle: saline 114 % of control

CN(C)c1ccc2nc3ccc(N)cc3[n+](-c3ccccc3)c2c1
inactive: dose: 3.12 mg/kg/injection, schedule: Q01DX005 (ip), vehicle: saline 106 % of control | dose: 6.25 mg/kg/injection, schedule: Q01DX005 (ip), vehicle: saline 106 % of control | dose: 12.5 mg/kg/injection, schedule: Q01DX005 (ip), vehicle: saline 112 % of control

CC1=NNB(O)c2c1sc(Br)c2Br
inactive: [6] 100 % of control | [7] 95 % of control

O=C(C=C(C(F)(F)F)C(F)(F)F)c1ccc([N+](=O)[O-])cc1
inactive: dose: 3.13 mg/kg/injection, schedule: Q04DX003 (ip), vehicle: other 100 % of control | dose: 6.25 mg/kg/injection, schedule: Q04DX003 (ip), vehicle: other 109 % of control | dose: 12.5 mg/kg/injection, schedule: Q04DX003 (ip), vehicle: other 118 % of control

N#C/C(=C\c1ccco1)C(=O)c1ccco1
inactive: dose: 12.5 mg/kg/injection, schedule: Q01DX009 (ip), vehicle: saline with Tween-80 112 % of control | dose: 25.0 mg/kg/injection, schedule: Q01DX009 (ip), vehicle: saline with Tween-80 95 % of control | dose: 50.0 mg/kg/injection, schedule: Q01DX009 (ip), vehicle: saline with Tween-80 89 % of control and 97 % of control

C1CNCOC1
inactive: dose: 50.0 mg/kg/injection, schedule: Q04DX003 (ip), vehicle: saline 120 % of control | [8] 117 % of control | [9] 123 % of control

CC(C)c1cc(C(=O)[O-])c(O)c(C(C)C)c1.CC(C)c1cc(C(=O)[O-])c(O)c(C(C)C)c1.CC1OC(O[C@H]2/C=C/C=C/C=C/C=C/C=C/C=C/C=C/C(C)[C@@H](O)C(C)C(C)OC(=O)C[C@H](O)C[C@H](O)CC[C@@H](O)[C@H](O)C[C@H](O)C[C@]3(O)CC(O)[C@@H](C(=O)O)[C@H](C2)O3)C(O)C(N)C1O.[Cu+2] (stereo partly specified)
inactive: dose: 12.5 mg/kg/injection, schedule: Q04DX002 (ip), vehicle: saline with Tween-80 103 % of control | dose: 25.0 mg/kg/injection, schedule: Q04DX002 (ip), vehicle: saline with Tween-80 97 % of control | dose: 50.0 mg/kg/injection, schedule: Q04DX002 (ip), vehicle: saline with Tween-80 91 % of control

CC(C)CCC1=CC(=O)c2c(O)ccc(O)c2C1=O
inactive: dose: 2.5 mg/kg/injection, schedule: Q04DX002 (ip), vehicle: DMSO 97 % of control | dose: 5.0 mg/kg/injection, schedule: Q04DX002 (ip), vehicle: DMSO 97 % of control | dose: 10.0 mg/kg/injection, schedule: Q04DX002 (ip), vehicle: DMSO 95 % of control

CCOC(=O)c1c2c(c[nH]c1=O)CCCC2
inactive: [6] 106 % of control | [7] 97 % of control

O=S1(=O)N2CN3CN(C2)CN1C3
inactive: dose: 6.25 mg/kg/injection, schedule: Q04DX003 (ip), vehicle: Klucel (hydroxypropylcellulose) (HPC) 106 % of control | dose: 12.5 mg/kg/injection, schedule: Q04DX003 (ip), vehicle: Klucel (hydroxypropylcellulose) (HPC) 104 % of control | dose: 25.0 mg/kg/injection, schedule: Q04DX003 (ip), vehicle: Klucel (hydroxypropylcellulose) (HPC) 111 % of control | dose: 50.0 mg/kg/injection, schedule: Q04DX003 (ip), vehicle: Klucel (hydroxypropylcellulose) (HPC) 106 % of control

CCN(CC)CCOc1ccccc1C(C)=O
inactive: [10] 93 % of control | dose: 50.0 mg/kg/injection, schedule: Q01DX005 (ip), vehicle: saline with Tween-80 99 % of control

CN(CCc1nnnn1C)/N=C\C=N\N(C)CCc1nnnn1C
inactive: dose: 50.0 mg/kg/injection, schedule: Q01DX001 (ip), vehicle: Klucel (hydroxypropylcellulose) (HPC) 112 % of control | dose: 100.0 mg/kg/injection, schedule: Q01DX001 (ip), vehicle: Klucel (hydroxypropylcellulose) (HPC) 112 % of control | dose: 200.0 mg/kg/injection, schedule: Q01DX001 (ip), vehicle: Klucel (hydroxypropylcellulose) (HPC) 97 % of control

CC1(C)C(=O)N(Cl)C(=O)N1Cl
inactive: dose: 6.25 mg/kg/injection, schedule: Q01DX005 (ip), vehicle: Klucel (hydroxypropylcellulose) (HPC) 100 % of control and 95 % of control | dose: 6.25 mg/kg/injection, schedule: Q01DX005 (ip), vehicle: saline with Tween-80 92 % of control | dose: 12.5 mg/kg/injection, schedule: Q01DX005 (ip), vehicle: Klucel (hydroxypropylcellulose) (HPC) 102 % of control and 101 % of control | dose: 12.5 mg/kg/injection, schedule: Q01DX005 (ip), vehicle: saline with Tween-80 87 % of control | dose: 16.5 mg/kg/injection, schedule: Q01DX009 (ip), vehicle: saline with Tween-80 104 % of control | dose: 25.0 mg/kg/injection, schedule: Q01DX005 (ip), vehicle: Klucel (hydroxypropylcellulose) (HPC) 106 % of control | [10] 97 % of control

Nc1cnc(CO)nc1C(=O)O
inactive: dose: 50.0 mg/kg/injection, schedule: Q01DX005 (ip), vehicle: saline 100 % of control | dose: 100.0 mg/kg/injection, schedule: Q01DX005 (ip), vehicle: saline 102 % of control | dose: 200.0 mg/kg/injection, schedule: Q01DX005 (ip), vehicle: saline 107 % of control

Nc1ncncc1-c1ccc(F)cc1
inactive: [4] 103 % of control | [5] 101 % of control

CC1(C)CC(C)(OC(=O)c2ccccc2Cl)N=N1 (stereo unspecified)
inactive: dose: 11.0 mg/kg/injection, schedule: Q01DX009 (ip), vehicle: other 97 % of control | dose: 12.5 mg/kg/injection, schedule: Q01DX009 (ip), vehicle: other 107 % of control | dose: 16.5 mg/kg/injection, schedule: Q01DX009 (ip), vehicle: other 97 % of control | dose: 25.0 mg/kg/injection, schedule: Q01DX009 (ip), vehicle: other 108 % of control | dose: 37.5 mg/kg/injection, schedule: Q01DX009 (ip), vehicle: other 116 % of control | dose: 50.0 mg/kg/injection, schedule: Q01DX009 (ip), vehicle: other 103 % of control | dose: 100.0 mg/kg/injection, schedule: Q01DX009 (ip), vehicle: other 112 % of control | dose: 200.0 mg/kg/injection, schedule: Q01DX009 (ip), vehicle: other 116 % of control

Cc1nn(C(=O)c2ccncc2)c(C)c1N=Nc1ccc(S(=O)(=O)Nc2nccs2)cc1
inactive: [8] 96 % of control | [9] 97 % of control | dose: 400.0 mg/kg/injection, schedule: Q04DX003 (ip), vehicle: saline 110 % of control

O=C(Nc1ccc(Cl)cc1C(=O)c1ccccn1)c1ccccc1
inactive: dose: 12.5 mg/kg/injection, schedule: Q04DX003 (ip), vehicle: saline with Tween-80 107 % of control | dose: 25.0 mg/kg/injection, schedule: Q04DX003 (ip), vehicle: saline with Tween-80 93 % of control | dose: 50.0 mg/kg/injection, schedule: Q04DX003 (ip), vehicle: saline with Tween-80 108 % of control | dose: 100.0 mg/kg/injection, schedule: Q04DX003 (ip), vehicle: saline with Tween-80 94 % of control | dose: 200.0 mg/kg/injection, schedule: Q04DX003 (ip), vehicle: saline with Tween-80 97 % of control
